“Also recorded” adds a separate entry of the source.
Tests used:
[1] = tested on: purified human eosinophils; test: In vitro eosinophil apoptosis assay (Annexin V/propidium iodide, flow cytometry); assay type: cell-based; settings: for effect on eosinophil apoptosis / percentage of non-apoptotic eosinophils (result in words): 36 hours in culture, 1 μM, interleukin-5 at 1 ng/ml, FIG. 5
Experimental: Purified eosinophils were resuspended at 2.0×10^5 cells per ml in RPMI 1640 medium supplemented with 10% (v/v) fetal bovine serum, 2 mM glutamine, and 100 units of penicillin and streptomycin. Compounds to be tested were diluted 1:1000 to their final concentration and the cells were incubated at 37° C. in a CO2 chamber for 36 hours. The extent of apoptosis in the eosinophil population was evaluated using the TACS™ Annexin-V-FITC apoptosis detection kit (R&D systems). Non-apoptotic cells are not stained with either Annexin-V FITC or propidium iodide. Early apoptotic cells are stained with Annexin-V FITC but not propidium iodide (green fluorescence). Late apoptotic cells are stained with both Annexin-V FITC and propidium iodide (dual green and red fluorescence). Necrotic cells are only stained with propidium iodide (red fluoresecence). Labeled eosinophils were analyzed in a FACS Calibur system from Becton Dickinson.
The ability of PGD2 to modulate apoptosis in eosinophils was measured by quantifying the capacity of Annexin V to bind to phosphatidylserine on the outer membrane of apoptotic cells. (Koopman, et al., Blood 84:1415, 1994.) Necrotic cell death was determined by propidium iodide uptake. (Darzynkiewicz, et al., Cytometry 13:795, 1992.) Annexin V-FITC and propidium iodide staining of eosinophils was evaluated by FACS analysis.

[2] = tested on: purified human eosinophils; test: Eosinophil degranulation (release of ECP into the media, radioimmunoassay); assay type: cell-based; settings: for release of ECP from eosinophils (result in words): FIG. 4: DK-PGD2 100 nM, BW245C 1 μM, FP and EP agonists 1 μM
Experimental: Purified eosinophils were resuspended at 3.0×10^6 cells per ml in RPMI 1640 medium supplemented with 0.5% (v/v) fetal bovine serum. Compounds to be tested were diluted 1:1000 to their final concentration in 300 μl of cells in a 1.5 ml centrifuge tube. The cells were immediately transferred to a 24-well plate. After an 1 hour incubation at 37° C. in a CO2 chamber, the cells were removed by centrifugation (4° C., 300× g, 10 minutes). Eosinophil cationic protein (ECP) in the supernatant was quantified by a double antibody radioimmunoassay (Pharmacia) following the manufacturer's protocol.
Degranulation of eosinophils was assayed by challenging freshly isolated eosinophils with PGD2 and measuring release of the eosinophil cationic protein (ECP) into the media using an ECP-specific radioimmunoassay.

[3] = tested on: purified human eosinophils; test: Eosinophil morphology change by light microscopy; assay type: cell-based
Experimental: Purified eosinophils were incubated in RPMI 1640 media supplemented with 0.5% fetal bovine serum in the presence of the compound to be tested for 15 minutes in a 24-well dish. Light microscopy was performed with an inverted Axiovert 25 (Zeiss) and images were obtained with a 35 mm SLR camera (ARIA CONTAX, Kyocera corporation) using Kodak Elite Chrome 160T film.
Vehicle-treated eosinophils were spherical and only weakly adhered to the culture dish. […] This effect was seen on the majority of eosinophils from all donors analysed (n=20).

[4] = tested on: purified human eosinophils; test: Eosinophil chemokinesis (chemotactic chamber without chemoattractant in the lower chamber); assay type: cell-based; settings: for stimulation of eosinophil chemokinesis (result in words): FIG. 3: BW245C 1 μM, DK-PGD2 100 nM, PAF 100 nM, IL-5 1 ng/ml, PGE2, fluprostenol and latanoprost 1 μM; for increase in eosinophil chemokinesis: data not shown
Experimental: Purified eosinophils were resuspended at 3.0×10^6 cells per ml in RPMI 1640 medium supplemented with 0.5% (v/v) fetal bovine serum. Compounds to be tested were added from 1000× concentrated stock solutions to 100 μl of cells in a 1.5 ml centrifuge tube and incubated at room temperature for 5 minutes. 100 μl of treated cells were then added to the top half of a chemotactic chamber (6.5 mm Transwell, 3.0 μm polycarbonate membrane from Costar) and 600 μl of RPMI, supplemented with 0.5% (v/v) fetal bovine serum, was added to the bottom chamber. After a 2 hour incubation at 37° C. in a CO2 chamber, the top chamber was discarded and the number of cells that had migrated to the lower chamber was evaluated by counting the cells using an hematocytometer. For each condition tested, the number of migrating eosinophils in two chemotactic chambers was averaged.
Chemokinesis was measured by incubating eosinophils with PGD2 for 5 minutes prior to their loading in the upper chamber of a chemotactic unit lacking a chemoattractant in the lower chamber. PGD2 at a concentration of […] increased eosinophil chemokinesis by 6-fold compared to cells treated with vehicle only (FIG. 3). PGD2 at concentrations of 10 nM and 1 μM increased eosinophil chemokinesis by a factor of 5 and 9-fold respectively (data not shown).

[5] = tested on: eosinophils; test: Eosinophil chemotaxis (agent in the bottom chamber of the chemotactic unit); assay type: cell-based, human; settings: data not shown
Experimental: Chemotaxis was measured by adding PGD2 to the bottom chamber of a chemotactic unit containing eosinophils in the top chamber.

[6] = 15 minutes, FIG. 2: DK-PGD2 10 nM, PAF 100 nM, IL-5 1 ng/ml

O=C(O)CCCCCCC1C(=O)NC(=O)N1CCC(O)C1CCCCC1 (stereo not drawn) [BW245C]
increase in the percentage of non-apoptotic eosinophil ([1]; BW245C 1 μM, 36 hours, over vehicle treated population, 9 donors): 17% | release of ECP from eosinophils (result in words) ([2]; 1 hour): not BW245C, significantly increased the release of ECP | change in eosinophil morphology ([3]; concentrations as high as 1 μM, panel 2c): did not affect eosinophil shape | stimulation of eosinophil chemokinesis (result in words) [4]: not BW245C was effective in stimulating eosinophil chemokinesis

CC(C)OC(=O)CCC/C=C\C[C@@H]1[C@@H](CC[C@@H](O)CCc2ccccc2)[C@H](O)C[C@@H]1O [latanoprost]
effect on eosinophil apoptosis / percentage of non-apoptotic eosinophils (result in words) [1]: not significant | change in eosinophil morphology ([3]; μM doses, data not shown): did not cause, even at μM doses, any alterations of eosinophil morphology | stimulation of eosinophil chemokinesis (result in words) [4]: failed to modulate eosinophil migration

Il-5: Recombinant human interleukin-5 produced using a baculovirus system and purified by FPLC
effect on eosinophil apoptosis / percentage of non-apoptotic eosinophils (result in words) [1]: increased the percentage of non-apoptotic eosinophils | change in eosinophil morphology [3, 6]: lead to a rapid change in eosinophil morphology | stimulation of eosinophil chemokinesis (result in words) [4]: able to stimulate eosinophil chemokinesis

O=C(O)CCC/C=C\C[C@@H]1[C@@H](/C=C/[C@@H](O)COc2cccc(C(F)(F)F)c2)[C@H](O)C[C@@H]1O (racemic) [fluprostenol]
effect on eosinophil apoptosis / percentage of non-apoptotic eosinophils (result in words) [1]: not significant | change in eosinophil morphology ([3]; μM doses, data not shown): did not cause, even at μM doses, any alterations of eosinophil morphology | stimulation of eosinophil chemokinesis (result in words) [4]: failed to modulate eosinophil migration

CCCCC[C@H](O)/C=C/[C@H]1C(=O)C[C@H](O)[C@@H]1C/C=C\CCCC(=O)O [PGD2, Prostanglandin D2]
chemotactic (chemoattractant) effect on eosinophils ([5]; PGD2 added to the bottom chamber): not observed to exert a chemotatic effect; also recorded: did not attract eosinophils to the lower chamber | chemotactic response of pre-incubated eosinophils to PAF or eotaxin ([5]; pre-incubation up to 1 μM for 5 minutes to 18 hours): did not have an altered chemotactic response | effect on eosinophil apoptosis / percentage of non-apoptotic eosinophils (result in words) [1]: weak inhibitor of apoptotic cell death | release of ECP from eosinophils into the media ([2]; 10 to 100 nM, 1 hour, FIG. 4): significantly increased the release of ECP | release of the granular protein EDN from eosinophils ([2]; after PGD2 challenge, data not shown): observed the release from eosinophils of another granular protein, EDN | extent of ECP release relative to PAF ([2]; average over donors): about half that seen with PAF | morphology change after a second PGD2 challenge ([3]; PGD2-treated eosinophils, data not shown): resistant to morphology changes after a second PGD2 challenge | change in eosinophil morphology ([3]; PGD2 <10 nM, within minutes, n=20 donors): induced dramatic changes in cell morphology | reversion of treated eosinophils to spherical shape ([3]; after PGD2 treatment): reverted to a spherical shape within six hours | increase in eosinophil chemokinesis ([4]; 10 nM): 5 fold | increase in eosinophil chemokinesis ([4]; 1 μM): 9 fold | increase in eosinophil chemokinesis compared to cells treated with vehicle only ([4]; 100 mM (so in the source), 5 minutes pre-treatment, 2 hours migration, FIG. 3): 6 fold | stimulation of eosinophil chemokinesis (result in words) [4]: increased cell motility in the absence of a chemical gradient

CCCCC[C@H](O)/C=C/[C@H]1[C@H](O)CC(=O)[C@@H]1C/C=C\CCCC(=O)O [PGE2]
effect on eosinophil apoptosis / percentage of non-apoptotic eosinophils (result in words) [1]: increased the percentage of non-apoptotic eosinophils | change in eosinophil morphology ([3]; μM doses, data not shown): did not cause, even at μM doses, any alterations of eosinophil morphology | stimulation of eosinophil chemokinesis (result in words) [4]: failed to modulate eosinophil migration

CCCCCC(=O)CCC1C(=O)CC(O)C1C/C=C\CCCC(=O)O (stereo not drawn) [DK-PGD2, 13,14-dihydro-15-keto-PGD2]
effect on eosinophil apoptosis / percentage of non-apoptotic eosinophils (result in words) [1]: no significant effect | release of ECP from eosinophils (result in words) ([2]; 1 hour): significantly increased the release of ECP | change in eosinophil morphology [3, 6]: induced a morphological change identical to that observed with PGD2 | stimulation of eosinophil chemokinesis (result in words) [4]: effective in stimulating eosinophil chemokinesis

— US20040185509A1, “Eosinophil prostaglandin d2 receptor assays” (priority 2001, published 2004)
